Entries after “also recorded” stand apart in the source; their conditions may differ.
Experiments:
[1] = system: human embryonic lung (HEL) fibroblasts; experiment: Cytotoxicity in HEL cell cultures (alteration of cell morphology); conditions: microscopically detectable alteration of normal cell morphology
Human TK-1 = target: T1, Human TK-1 (Homo sapiens, UniProt P04183); experiment: Thymidine kinase assay using [CH3-3H]dThd as natural substrate, TK-1; assay type: biochemical; conditions: for IC50: 50% inhibitory concentration for TK-catalyzed conversion of [3H]dThd to its 5'-monophosphate, 1 µM dThd, 37 °C, 30 min
T1 sequence (P04183 1-234): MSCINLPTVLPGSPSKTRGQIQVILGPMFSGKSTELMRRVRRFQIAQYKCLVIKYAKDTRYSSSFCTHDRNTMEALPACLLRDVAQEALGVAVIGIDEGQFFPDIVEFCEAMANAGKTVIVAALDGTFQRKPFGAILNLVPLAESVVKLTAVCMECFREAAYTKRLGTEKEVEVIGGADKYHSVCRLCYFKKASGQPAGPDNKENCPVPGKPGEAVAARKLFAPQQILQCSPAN
Experimental: (§1) Thymidine Kinase Assay Using [CH3-^3H]dThd as the Natural Substrate. The activity of recombinant thymidine kinase 1 (TK-1), TK-2, and herpes simplex virus-1 (HSV-1) TK, and the 50% inhibitory concentration of the test compounds, were assayed in a 50-μL reaction mixture containing 50 mM Tris/HCl, pH 8.0, 2.5 mM MgCl2, 10 mM dithiothreitol, 0.5 mM CHAPS, 3 mg/mL bovine serum albumin, 2.5 mM ATP, 1 µM [methyl-^3H]dThd, and enzyme. The samples were incubated at 37 °C for 30 min in the presence or absence of different concentrations (five-fold dilutions) of the test compounds. At this time, the enzyme reaction still proceeded linearly. Aliquots of 45 µL of the reaction mixtures were spotted on Whatman DE-81 filter paper disks (Whatman, Clifton, NJ, USA). The filters were washed three times for 5 min each in 1 mM ammonium formate, once for 1 min in water, and once for 5 min in ethanol. The radioactivity was determined by scintillation counting.

Human TK-2 = target: T2, Human TK-2 (Homo sapiens, UniProt O00142); experiment: Thymidine kinase assay using [CH3-3H]dThd as natural substrate, TK-2; assay type: biochemical; conditions: for IC50: 50% inhibitory concentration for TK-catalyzed conversion of [3H]dThd to its 5'-monophosphate, 1 µM dThd, 37 °C, 30 min
T2 sequence (O00142 34-265): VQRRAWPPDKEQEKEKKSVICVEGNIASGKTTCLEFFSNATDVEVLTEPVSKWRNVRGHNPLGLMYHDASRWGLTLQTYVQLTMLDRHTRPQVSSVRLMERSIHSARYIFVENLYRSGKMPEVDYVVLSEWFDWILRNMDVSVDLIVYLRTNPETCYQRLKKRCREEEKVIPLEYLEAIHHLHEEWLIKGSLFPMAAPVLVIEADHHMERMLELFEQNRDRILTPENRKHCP
Experimental: as §1

HSV-1 TK [2] = target: T3, HSV-1 TK (Human herpesvirus 1, UniProt P0DTH5); experiment: Thymidine kinase assay using [CH3-3H]dThd as natural substrate, HSV-1 TK; assay type: biochemical
T3 sequence (P0DTH5 whole entry): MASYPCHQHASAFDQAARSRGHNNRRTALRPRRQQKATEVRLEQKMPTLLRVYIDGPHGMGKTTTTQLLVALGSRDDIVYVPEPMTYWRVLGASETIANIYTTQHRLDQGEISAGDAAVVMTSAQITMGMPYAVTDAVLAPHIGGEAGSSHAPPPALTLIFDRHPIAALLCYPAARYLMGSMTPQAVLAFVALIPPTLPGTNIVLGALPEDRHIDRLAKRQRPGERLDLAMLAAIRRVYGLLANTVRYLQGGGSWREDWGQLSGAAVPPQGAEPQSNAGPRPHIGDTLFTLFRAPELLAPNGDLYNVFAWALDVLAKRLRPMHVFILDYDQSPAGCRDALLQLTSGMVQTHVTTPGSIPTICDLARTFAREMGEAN
Experimental: as §1

HSV-1 TK [3] = target: T3, HSV-1 TK; experiment: Substrate activity for HSV-1 TK by HPLC technology; assay type: biochemical, herpes simplex virus-1
Description: Therefore, to evaluate this last point, we performed further studies to test the suitability of these compounds to pass the usual rate-limiting first phosphorylation step. Thus, the affinity of the synthesized compounds 2a–e for the cellular and HSV-1 thymidine kinases (TKs) were investigated (Table 2). […] It was expected that this cytosine analogue might show affinity for HSV-1 TK, as the natural nucleoside (2-deoxycytidine, 2-dC) is known to be recognized by several kinases, including HSV-1 TK; however, that was apparently not the case. […] Therefore, because some of the synthesized analogues were recognized by the virus-encoded nucleoside kinase, the lack of antiherpetic activity could be attributed to the lack of further conversion of the 5′-monophosphate derivative to the 5′-triphosphate or to a low affinity, if any, of the 5′-triphosphate metabolite to the virus-encoded DNA polymerase.

In the case of `Nc1nc2c(ncn2COCCO)c(=O)[nH]1` [Acyclovir], the “Cytotoxicity, minimum cytotoxic concentration” value [1] is reported as > 250 µM.
For `O=c1[nH]c(=O)n([C@H]2C[C@H](O)[C@@H](CO)O2)cc1/C=C/Br` [Brivudin], the “Cytotoxicity, minimum cytotoxic concentration” value [1] was > 250 µM.
With `Nc1ccn(C[C@@H](CO)OCP(=O)(O)O)c(=O)n1` [Cidofovir] the “Cytotoxicity, minimum cytotoxic concentration” value [1] was > 250 µM.
In the case of `Nc1ncnc2c1ncn2[C@H]1CC[C@@H](CO)[C@@H]2C[C@@H]21` [Compound 2a], the IC50 (Human TK-1) is reported as > 771 µM, the IC50 (Human TK-2) is reported as > 771 µM and the IC50 (HSV-1 TK [2]) is reported as 578 µM.
With `Nc1nc2c(ncn2[C@H]2CC[C@@H](CO)[C@@H]3C[C@@H]32)c(=O)[nH]1` [Compound 2b] the “Affinity for human TK-1 / human cellular kinases (in words)” value (Human TK-1) was “not for human TK-1”, the IC50 (Human TK-1) was > 726 µM and the “Affinity for mitochondrial TK-2 (in words)” value (Human TK-2) was “some marginal affinity”. The IC50 (Human TK-2) was 338 µM, the “Affinity for HSV-1 TK (in words)” value (HSV-1 TK [2]) was “excellent affinity; also recorded: display affinity” and the IC50 (HSV-1 TK [2]) was 5.81 µM. The “Substrate activity for HSV-1 TK, conversion to the monophosphate metabolite” value (HSV-1 TK [3]) was “good substrate”.
`O=c1ccn([C@H]2CC[C@@H](CO)[C@@H]3C[C@@H]32)c(=O)[nH]1` [Compound 2c] was tested, and the IC50 (Human TK-1) was > 846 µM, the IC50 (Human TK-2) was > 846 µM and the IC50 (HSV-1 TK [2]) was > 846 µM.
`Cc1cn([C@H]2CC[C@@H](CO)[C@@H]3C[C@@H]32)c(=O)[nH]c1=O` [Compound 2d] was tested, and the “Affinity for human TK-1 / human cellular kinases (in words)” value (Human TK-1) was “not for human TK-1”, the IC50 (Human TK-1) was > 799 µM and the IC50 (Human TK-2) was > 799 µM. The “Affinity for HSV-1 TK (in words)” value (HSV-1 TK [2]) was “display affinity” and the IC50 (HSV-1 TK [2]) was 208 µM.
`Nc1ccn(C2CCC(CO)C3CC32)c(=O)n1` (stereo not drawn) [Compound 2e, 4-Amino-1-[(1′S,2′S,5′R,6′R)-5′-(hydroxymethyl)bicyclo [4.1.0]hept-2′-yl]pyrimidin-2(1H)-one] was tested, and the IC50 (Human TK-1) was > 425 µM, the IC50 (Human TK-2) was > 425 µM and the “Affinity for HSV-1 TK (in words)” value (HSV-1 TK [2]) was “did not display affinity”. For the same compound, the IC50 (HSV-1 TK [2]) was > 425 µM and the “Cytotoxicity, minimum cytotoxic concentration” value [1] was > 100 µM.
In the case of `Nc1nc(O)c2ncn(COC(CO)CO)c2n1` [Ganciclovir], the “Cytotoxicity, minimum cytotoxic concentration” value [1] is reported as > 100 µM.

Source: publication PMC9456008, “Enantiocontrolled Preparation of ϒ-Substituted Cyclohexenones: Synthesis and Kinase Activity Assays of Cyclopropyl-Fused Cyclohexane Nucleosides” (International Journal of Molecular Sciences, 2022)
